Measured values: patent publication US6048892A, “Ester compound pesticide containing thereof” (Sumitomo Chemical Company, Limited, priority 1999, dated 2000)

Legend:
[1] = tested on: tobacco cutworm (Spodoptera litura); experiment: Biological Test 1: mortality of larvae on impregnated artificial bait; format: in vivo; conditions: 144 h, read-out: mortality of the larvae
Experimental: Emulsifiable concentrates were prepared for each of the present compounds according to the formulation example 1. Thirteen grams of artificial bait for tobacco cutworm (Spodoptera litura) were placed in a polyethylene cup (diameter: 11 cm) and impregnated with 2 ml of the 500 ppm emulsion prepared by diluting the emulsifiable concentrates with water. Ten 4-instar larvae of Spodoptera litura were put in the polyethylene cup. After 6 days, the mortality of the larvae was examined.

[2] = tested on: common mosquitoes (Culex pipiens pallens); experiment: Biological Test 6: mortality of last-instar mosquito larvae in water; format: in vivo; conditions: 24 h, read-out: mortality of the common mosquitoes
Experimental: 0.7 ml of aqueous emulsion, obtained by diluting emulsifiable concentrate prepared for each of the present compounds according to the formulation example 1, was added to 100 ml of ion-exchanged water (concentration of active ingredient: 3.5 ppm). Twenty last-instar larvae of common mosquitoes (Culex pipiens pallens) were left in the water. After one day, the mortality of the common mosquitoes was examined.

[3] = tested on: German cockroaches (Blattella germanica); experiment: Biological Test 5: mortality of male German cockroaches low sensitive to pyrethroids, treated filter paper; format: in vivo; conditions: 144 h
Experimental: (§1) Filter paper of 5.5 cm in diameter was laid in the bottom of a polyethylene cup (diameter: 5.5 cm). After 0.7 ml of a 500 ppm aqueous emulsion obtained by diluting each emulsifiable concentrate prepared according to the formulation example 1 was dropped on the filter paper and approximately 30 mg of sucrose as bait was uniformly scattered. Two male German cockroaches (Blattella germanica), which were low sensitive to pyrethroids, were left in the cup with a cover. After six days, the mortality was examined.

[4] = tested on: common mosquitoes (Culex pipiens pallens); experiment: Biological Test 11: mosquitoes in cup over treated aluminum plate without direct contact, mortality; format: in vivo; conditions: 24 h
Experimental: After 0.64 ml of a 0.05 (w/v) % acetone solution of the present compounds was dropped into an aluminum plate (bottom diameter: 7 cm), acetone was air-dried. Ten female common mosquitoes (Culex pipiens pallens) were left in a polyethylene cup (diameter: 9 cm; depth: 4.5 cm) and the cup was sealed with a 16-mesh nylon net to prevent direct contact of the mosquitoes with the compound. The cup was placed upside down on the aluminum plate at 25° C. for 120 minutes. The cup was then removed from the aluminum plate, and water and feed were given to the mosquitoes. After 24 hours, the mortality was examined (two replicate).

[5] = tested on: brown planthopper (Nilaparvata lugens); experiment: Biological Test 2: mortality of larvae on dipped rice plant stalk; format: in vivo; conditions: 144 h, read-out: mortality of the larvae
Experimental: A stalk of a rice plant was dipped for one minute in a 500 ppm aqueous emulsion obtained by diluting each emulsifiable concentrate of the present compounds prepared according to the formulation example 1. The rice plant stalk was air-dried and placed in a polyethylene cup (diameter: 5.5 cm) where filter paper (diameter: 5.5 cm) impregnated with 1 ml of water was put. Approximately 30 larvae of brown planthopper (Nilaparvata lugens) were put in the polyethylene cup. After 6 days, the mortality of the larvae was examined.

[6] = tested on: webbing clothes moth (Tineola bisselliella); experiment: Biological Test 12: topical application to larvae of webbing clothes moth, mortality and fabric damage; format: in vivo; conditions: for degree of damage of the wool muslin fabric: 3 μg/insect, after 7 days; for mortality at 0.003 mg: Tineola bisselliella, 168 h
Experimental: Each of the present compounds diluted with acetone to a predetermined concentration was applied to ten middle instar larvae of webbing clothes moth (Tineola bisselliella) at the central part of the back so as to give the active ingredient in a dose of 3 μg/insect. A wool muslin fabric (2 cm×2 cm in size) was given to the webbing clothes moths as the food. After 7 days, the mortality and the degree of damage of the wool muslin fabric by the moths were examined (two replicate).

[7] = tested on: common mosquitoes (Culex pipiens pallens); experiment: Biological Test 7: knock-down of mosquitoes by sprayed oil solution; format: in vivo; conditions: 0.7 ml of 0.1% oil solution sprayed in 0.34 m^3 chamber; after 15 minutes
Experimental: Ten female common mosquitoes (Culex pipiens pallens) were left in a glass chamber (70 cm×70 cm×70 cm: 0.34 m^3). 0.7 ml of 0.1% oil solution prepared for each of the present compounds according to the formulation example 7 was sprayed with a spray gun at 0.8 atmospheric pressure. After 15 minutes, the rate of knocked-down mosquitoes was examined.

[8] = tested on: webbing clothes moth (Tineola bisselliella); experiment: Biological Test 14: treated filter paper in cardboard box, percent moribund, fabric damage and persistence; format: in vivo; conditions: 36 mg on filter paper
Experimental: A filter paper (3.2 cm×3.2 cm in size) treated with 36 mg of each of the present compounds and two wool muslin fabrics (25 cm×25 cm in size) were hung down at the upper part of a corrugated cardboard box (29 cm×29 cm×29 cm in size). After standing at 25° C. and a humidity of 60% for 1 week, two tea-strainer balls holding 7 to 10 middle instar larvae of webbing clothes moth (Tineola bisselliella) and one piece of wool muslin cloth (2 cm×2 cm in size) were hung down at the upper part of the box. The box was closed with a lid. After one week, the box was opened, and the percent moribund and the degree of damage of the wool muslin cloth by the moths were examined. The same tests was repeated 2 weeks, 3 weeks and 5 weeks after the treatment to examine the persistance of the present compound. The degree of damage was represented by "-" in no damage, "+" in slight damage, "++" in heavy damage and "+++" in severe damage.

[9] = tested on: webbing clothes moth (Tineola bisselliella); experiment: Biological Test 13: volatile agent in cup, mortality and fabric damage; format: in vivo; conditions: volatile agent (100 μg on filter paper), 950 cm^3 cup, 25° C., 1 week; for mortality: 10080 min
Experimental: A wool muslin fabric (2 cm×2 cm in size) was placed on the bottom of a polyethylene cup (bottom diameter: 10 cm, opening part diameter: 12.5 cm, height: 9.5 cm, volume: 950 cm^3). Ten middle instar larvae of webbing clothes moth (Tineola bisselliella) were put in the cup and each of the volatile agents prepared according to the formulation example 14 was hung from the cap in the interior of the cup. After standing at 25° C. for 1 week, the cup was opened, and the mortality and the degree of damage of the wool muslin fabric by the moths were examined (two replicate).

[10] = tested on: southern corn rootworm (Diabrotica undecimpunctata howardi); experiment: Biological Test 3: mortality of hatched larvae and eggs; format: in vivo; conditions: 192 h, read-out: mortality of the hatched larvae and eggs
Text: Filter paper of 5.5 cm in diameter was laid in the bottom of a polyethylene cup (diameter: 5.5 cm). […] After 8 days, the mortality of the hatched larvae and eggs was examined.

[11] = tested on: houseflies (Musca domestica); experiment: Biological Test 4: mortality of female houseflies low sensitive to pyrethroids, treated filter paper; format: in vivo; conditions: 24 h
Experimental: as §1, with “Ten female houseflies (Musca domestica),” for “Two male German cockroaches (Blattella germanica),”, “one day,” for “six days,”

[12] = tested on: common mosquitoes (Culex pipiens pallens); experiment: Biological Test 8: knock-down of mosquitoes by mosquito-coil; format: in vivo; conditions: 1.0 g of 0.3% mosquito-coil in 0.34 m^3 chamber; after 15 minutes
Experimental: Mosquito-coil containing the present compound in an amount of 0.3% was prepared according to the formulation example 10 for the present compounds. Ten female common mosquitoes (Culex pipiens pallens) were left in a glass chamber (70 cm×70 cm×70 cm: 0.34 m^3) and 1.0 g of 0.3% mosquito-coil having both ends lit was placed in the glass chamber. After 15 minutes, the rate of knocked-down mosquitoes was examined.

[13] = Toxicity Test: acute oral LD50; conditions: rat, in vivo, corn oil, fasted male 7-week old rats, after 7 days
Experimental: After subjecting the rats to a twenty-hour fasting, 0.1 ml of the diluted solution per 10 g weight was forcibly applied into the stomach of four male 7-week old rats. The rats were given food and water four hours after the application and thereafter regularly fed and watered, and kept in a cage. After 7 days, the mortality was examined for the rats and LD50 was calculated.

[14] = tested on: houseflies (Musca domestica); experiment: Biological Test 17: topical application of compound (2) with piperonyl butoxide, mortality; format: in vivo; conditions: after 24 hours
Experimental: The combination rate of piperonyl butoxide to the present compound was 0, 2, 4, 8 and 16 times. The mixture was dissolved in acetone. The acetone solution (0.5 μL) was applied to 10 female houseflies (Musca domestica) at the back thoracic region. After 24 hours, the number of dead insects was observed (2 repetition) and mortality was calculated.

Row | SMILES | mortality at 500 µg/mL [1] [%] | mortality at 3.5 ppm [2] [%] | mortality at 500 ppm [3] [%] | mortality at 500 µg/mL [4] [%] | mortality at 500 ppm [5] [%] | degree of damage of the wool muslin fabric [6] | mortality at 0.003 mg [6] [%] | rate of knocked-down mosquitoes [7] [%] | degree of damage ([8]; After 1 week) | degree of damage ([8]; After 2 weeks) | degree of damage ([8]; After 3 weeks) | degree of damage ([8]; After 5 weeks) | degree of damage of the wool muslin fabric [9] | mortality [9] [%] | mortality at 50 ppm [10] [%] | mortality at 500 ppm [11] [%] | rate of knocked-down mosquitoes [12] [%] | LD50 at 168 h [13] [mg/kg] | further results
1 | CCCc1ccc(COC(=O)[C@@H]2[C@H](/C=C(\Cl)C(F)(F)F)C2(C)C)o1 (relative stereo) [(3), 5-propyl-2-furfuryl (1RS,cis)-3-(Z-2-chloro-3,3,3-trifluoroprop-1-enyl)-2,2-dimethylcyclopropanecarboxylate] | 100 | ≥ 90 | 100 | 100 | ≥ 90 | no damage | 100 | ≥ 90 | - | - | - | - | no damage | 100 | 100 | 100 | 100 |  | 
2 | C#CCc1ccc(COC(=O)C2C(/C=C(\Cl)C(F)(F)F)C2(C)C)o1 (stereo not shown) [C, reference compound] |  |  |  |  |  |  |  |  | +++ | +++ | +++ | +++ |  |  |  |  |  | < 100 | 
3 | CC1(C)C(/C=C(\Cl)C(F)(F)F)C1C(=O)OCc1ccc(C(F)F)o1 (stereo not shown) [B, reference compound] |  |  |  |  |  |  |  |  | +++ | +++ | +++ | +++ |  |  |  |  |  |  | 
4 | CCc1ccc(COC(=O)[C@@H]2[C@H](/C=C(\Cl)C(F)(F)F)C2(C)C)o1 (relative stereo) [(2), 5-ethyl-2-furfuryl (1RS,cis)-3-(Z-2-chloro-3,3,3-trifluoroprop-1-enyl)-2,2-dimethyl-cyclopropanecarboxylate] | 100 | ≥ 90 | 100 | 100 | ≥ 90 | no damage | 100 | ≥ 90 | - | - | - | - | no damage | 100 | 100 | 100 | 100 |  | Mortality (%) ([14]; compound (2) 0.2 μg/female, piperonyl butoxide 0): 30%; Mortality (%) ([14]; compound (2) 0.2 + piperonyl butoxide 0.4 μg/female): 85%; Mortality (%) ([14]; compound (2) 0.2 + piperonyl butoxide 0.8 μg/female): 100%; Mortality (%) ([14]; compound (2) 0.2 + piperonyl butoxide 1.6 μg/female): 100%; Mortality (%) ([14]; compound (2) 0.2 + piperonyl butoxide 3.2 μg/female): 100%
5 | C=CCc1ccc(COC(=O)[C@@H]2[C@H](/C=C(\Cl)C(F)(F)F)C2(C)C)o1 (relative stereo) [(4), 5-allyl-2-furfuryl (1RS,cis)-3-(Z-2-chloro-3,3,3-trifluoroprop-1-enyl)-2,2-dimethylcyclopropanecarboxylate] | 100 | ≥ 90 | 100 | 100 | ≥ 90 | no damage | 100 | ≥ 90 | - | - | - | - | no damage | 100 | 100 | 100 | 100 |  | 
6 | CC1(C)C(/C=C(\Cl)C(F)(F)F)C1C(=O)OCc1coc(Cc2ccccc2)c1 (stereo not shown) [A, reference compound] |  |  |  |  |  |  |  |  | +++ | +++ | +++ | +++ |  |  |  |  |  | < 50 | 
